# Assay results published in ChEMBL document CHEMBL6134898, “In Vitro ADME Profiling of PROTACs: Successes, Challenges, and Lessons Learned from Analysis of Clinical PROTACs from a Diverse Physicochemical Space” (J Med Chem, 2025).
# What was measured:
# [1] = Intrinsic clearance in monkey hepatocytes measured per million cells at 1 uM measured for 0.5 to 120 mins by LC-MS/MS analysis; format: ADME, cell-based, Macaca mulatta, Hepatocyte; details: rhesus monkey, time 0.5-120 min, read-out: CLH
# [2] = Protein binding in rat hepatocytes assessed as free fraction at 5 uM incubated for 18 hrs by LC-MS/MS analysis; format: ADME, cell-based, Hepatocyte
# [3] = Blood to plasma partitioning ratio in human at 10 uM incubated for 30 mins by LC-MS/MS analysis; format: ADME, cell-free; details: whole blood
# [4] = Stability in human plasma at 5 uM incubated for 18 hrs by LC-MS/MS analysis; format: ADME, cell-free; details: read-out: Stability
# [5] = Intrinsic clearance in dog hepatocytes measured per million cells at 1 uM measured for 0.5 to 120 mins by LC-MS/MS analysis; format: ADME, cell-based, Canis lupus familiaris, Hepatocyte; details: time 0.5-120 min, read-out: CLH
# [6] = Intrinsic clearance in human hepatocytes measured per million cells at 1 uM measured for 0.5 to 120 mins by LC-MS/MS analysis; format: ADME, cell-based, Hepatocyte; details: time 0.5-120 min, read-out: CLH
# [7] = Lipophilicity, LogD of compound by Chromatography; format: physicochemical
# [8] = Protein binding in human plasma assessed as compound recovery at 5 uM incubated for 18 hrs by LC-MS/MS analysis; format: ADME, cell-free; details: read-out: Drug recovery
# [9] = Blood to plasma partitioning ratio in rat at 10 uM incubated for 30 mins by LC-MS/MS analysis; format: ADME, cell-free; details: whole blood
# [10] = Intrinsic clearance in mouse hepatocytes measured per million cells at 1 uM measured for 0.5 to 120 mins by LC-MS/MS analysis; format: ADME, cell-based, Hepatocyte; details: time 0.5-120 min, read-out: CLH
# [11] = Intrinsic clearance in rat hepatocytes measured per million cells at 1 uM measured for 0.5 to 120 mins by LC-MS/MS analysis; format: ADME, cell-based, Hepatocyte; details: time 0.5-120 min, read-out: CLH
# [12] = Protein binding in human plasma assessed as free fraction at 5 uM incubated for 18 hrs by LC-MS/MS analysis; format: ADME, cell-free
# [13] = Blood to plasma partitioning ratio in dog at 10 uM incubated for 30 mins by LC-MS/MS analysis; format: ADME, cell-free, Canis lupus familiaris; details: whole blood
# [14] = Protein binding in dog plasma assessed as free fraction at 5 uM incubated for 18 hrs by LC-MS/MS analysis; format: ADME, cell-free, Canis lupus familiaris
# [15] = Apparent permeability across apical to basal side in human Caco-2 cells at 1 uM incubated for 120 mins by LC-MS/MS analysis; format: ADME, cell-based
# [16] = Apparent permeability across apical to basal side in human Caco-2 cells at 1 uM incubated for 120 mins followed by ACN addition by LC-MS/MS analysis; format: ADME, cell-based
# [17] = Protein binding in rat plasma assessed as free fraction at 5 uM incubated for 18 hrs by LC-MS/MS analysis; format: ADME, cell-free
# [18] = Protein binding in monkey plasma assessed as free fraction at 5 uM incubated for 18 hrs by LC-MS/MS analysis; format: ADME, cell-free, Macaca mulatta; details: rhesus monkey
# [19] = Protein binding in mouse plasma assessed as free fraction at 5 uM incubated for 18 hrs by LC-MS/MS analysis; format: ADME, cell-free
# [20] = Solubility of compound in FeSSIF at pH 5 measured after 24 hrs by UPLC analysis; format: physicochemical
# [21] = Solubility of compound in SGF at pH 1.2 measured after 24 hrs by UPLC analysis; format: physicochemical
# [22] = Solubility of compound in FaSSIF at pH 6.5 measured after 24 hrs by UPLC analysis; format: physicochemical
SMILES,hepatocyte CLint at 1 µM [1] [µL/min/1e6 cells],"fraction unbound at 18 h, 5 µM [2]","blood plasma ratio at 0.5 h, 10 µM [3]","remaining at 18 h, 5 µM [4] [%]",hepatocyte CLint at 1 µM [5] [µL/min/1e6 cells],hepatocyte CLint at 1 µM [6] [µL/min/1e6 cells],chromatographic logD [7],"recovery at 18 h, 5 µM [8] [%]","blood plasma ratio at 0.5 h, 10 µM [9]",hepatocyte CLint at 1 µM [10] [µL/min/1e6 cells],hepatocyte CLint at 1 µM [11] [µL/min/1e6 cells],"fraction unbound at 18 h, 5 µM [12]","blood plasma ratio at 0.5 h, 10 µM [13]","fraction unbound at 18 h, 5 µM [14]","Papp A→B at 2 h, 1 µM [15] [×10⁻⁶ cm/s]","Papp A→B at 2 h, 1 µM [16] [×10⁻⁶ cm/s]","fraction unbound at 18 h, 5 µM [17]","fraction unbound at 18 h, 5 µM [18]","fraction unbound at 18 h, 5 µM [19]",solubility at 24 h [20] [µg/mL],further results
Cc1ncsc1-c1ccc([C@H](C)NC(=O)[C@@H]2C[C@@H](O)CN2C(=O)[C@@H](NC(=O)CCCCCC(=O)N2CCN(CC[C@H](CSc3ccccc3)Nc3ccc(S(=O)(=O)NC(=O)c4ccc(N5CCN(CC6=C(c7ccc(Cl)cc7)CCC(C)(C)C6)CC5)cc4)cc3S(=O)(=O)C(F)(F)F)CC2)C(C)(C)C)cc1 [DT-2216],≤ 1,< 0.001,0.9,92,< 1,3,7.3,91,0.7,< 1,3,< 0.003,0.8,,,,,,,,
NC(=O)c1ncc(N2CCCCC2)nc1Nc1ccc(C2CCN(C[C@@H]3CCN(c4ccc5c(c4)C(=O)N(C4CCC(=O)NC4=O)C5=O)C3)CC2)cc1 (stereo partly drawn),6,0.003,0.8,78,4,< 1,5.1,90,0.6,8,5,< 0.004,0.5,< 0.001,< 0.1,< 0.1,0.001,< 0.002,< 0.001,,
CN1CCN([C@@H]2CCCN(c3cnc(C(N)=O)c(Nc4ccc(C5CCN(CC6CCN(c7ccc(C(=O)N[C@H]8CCC(=O)NC8=O)nc7)CC6)CC5)cc4)n3)C2)C1=O [NX-5948],16,0.178,1,43,3,5,2.2,40,1.1,4,3,0.024,2.6,0.067,2.8,8.7,0.073,0.094,0.024,51,solubility at 24 h [21]: 559 µg/mL; solubility at 24 h [22]: 2.5 µg/mL
CNC(=O)COc1cc2cc(Nc3nc(N4CCC(O[C@H]5C[C@H](N6CCC(c7ccc8c(c7F)CN(C7CCC(=O)NC7=O)C8=O)CC6)C5)CC4)ncc3Cl)ccc2n(C(C)C)c1=O (stereo partly drawn),10,0.016,0.8,7,8,3,3.7,43,1.1,5,5,< 0.007,0.7,0.002,< 0.3,1.2,0.014,0.007,0.005,,
CCc1cc(N2C(=S)N(c3ccc(C#N)c(C(F)(F)F)c3)C(=O)C2(C)C)ccc1OCCN1CCN(CC(=O)Nc2cccc(NC3CCC(=O)NC3=O)c2)[C@H](C)C1 (stereo partly drawn),5,< 0.001,0.6,72,≤ 1,3,5.2,82,0.7,10,11,< 0.001,0.6,< 0.001,< 0.3,1.2,0.003,0.003,,293,solubility at 24 h [21]: 16 µg/mL; solubility at 24 h [22]: 0.3 µg/mL
COc1cc(O[C@H]2C(C)(C)[C@H](NC(=O)c3ccc(N4CCC(CN5CCN(c6ccc(C(=O)N[C@H]7CCC(=O)NC7=O)c(F)c6)CC5)CC4)cc3)C2(C)C)ccc1C#N [LUXDEGALUTAMIDE],4,0.01,0.5,74,< 1,< 1,5.3,68,0.7,4,2,< 0.004,0.8,0.003,< 0.1,0.3,0.003,,0.002,3.8,solubility at 24 h [21]: 188 µg/mL; solubility at 24 h [22]: 0.4 µg/mL
Cn1c(=O)n([C@H]2CCC(=O)NC2=O)c2cccc(C#CCOC3CCN(C[C@H]4CC[C@H](n5cc(NC(=O)c6cnn7ccc(N8C[C@H]9C[C@@H]8CO9)nc67)c(C(F)F)n5)CC4)CC3)c21,10,0.069,,68,4,3,2.4,56,,11,11,0.022,,0.026,2.4,5.3,,0.035,0.008,33,solubility at 24 h [21]: 4.1 µg/mL; solubility at 24 h [22]: 1.6 µg/mL
O=C1CC[C@H](N2Cc3cc(N4CCN(CC5CCN(c6ccc([C@@H]7c8ccc(O)cc8CC[C@@H]7c7ccccc7)cc6)CC5)CC4)ccc3C2=O)C(=O)N1 [VEPDEGESTRANT],5,< 0.001,0.7,77,3,3,5.7,77,0.6,23,9,< 0.003,0.5,< 0.001,< 0.1,< 0.1,< 0.001,< 0.002,< 0.001,274,solubility at 24 h [21]: 230 µg/mL; solubility at 24 h [22]: 2.6 µg/mL
N#Cc1ccc(O[C@H]2CC[C@H](NC(=O)c3ccc(N4CCC(CN5CCN(c6cc7c(cc6F)C(=O)N([C@H]6CCC(=O)NC6=O)C7=O)CC5)CC4)nn3)CC2)cc1Cl,5,0.008,0.7,1,< 1,2,5.1,14,0.7,3,< 1,< 0.001,0.6,,< 0.1,0.1,,,< 0.001,192,solubility at 24 h [21]: 230 µg/mL; solubility at 24 h [22]: 1.6 µg/mL
COc1cc(-c2cn(C)c(=O)c3cnc(N4CCC4)cc23)cc(OC)c1CN1CCC(CN2CCC3(CC2)CN(c2ccc4c(c2)C(=O)N([C@H]2CCC(=O)NC2=O)C4)C3)CC1,3,0.35,2.7,84,5,< 1,1.9,65,1.3,5,< 1,0.29,2.4,0.41,< 0.1,0.1,0.265,0.427,0.232,,
